Measurements as given in patent US11179348B2, “Combination comprising pterostilbene for the treatment of cancer” (FUNDACIÓN UNIVERSIDAD CATÓLICA DE VALENCIA SAN VICENTE …, priority 2015, dated 2021).

Legend:
MCF-7 cells = assay: GSH levels and glutathione- and oxidative stress-related enzyme activities in MCF-7 cells growing in vivo; set-up: species or system human; conditions: MCF-7, in vivo Pter, day 28
Experimental: (§1) To measure enzyme activity, isolated tumor cells were homogenized in 0.1 M phosphate buffer (pH 7.2) at 4° C. GCL and GSS activities were measured as described previously (Obrador, E. et al. Hepatology 35, 74-81 (2002)). GPX (selenium dependent) activity was measured as described by Flohé and Gunzler (Flohe, L. & Gunzler, W. A. Methods Enzymol 105, 114-121 (1984)) using H2O2 as a substrate. GSR activity was determined as described by Akerboom and Sies (Akerboom, T. P. et al, Bull Eur Physiopathol Respir 17 Suppl, 221-227 (1981)). GGT activity was measured as described previously (Obrador, E. et al. Hepatology 35, 74-81 (2002)). GST activity was measured using an assay kit from Sigma. TXNRD activity, defined by the concentration of sodium-lipoate (disulfide) reduced to dehydrolipoate (dithiol) per milligram protein, was measured as previously described (Javvadi, P. et al. Cancer Res 70, 1941-1950 (2010)). SOD activity was measured as described by Flohé and Otting (Flohe, L. & Otting, F. Methods Enzymol 105, 93-104 (1984).) using 2 mM cyanide in the assay medium to distinguish mangano-type enzyme (SOD2) from the cuprozinc type (SOD1). CAT activity was analyzed as described by Aebi (Aebi, H. Methods Enzymol 105, 121-126 (1984)). NOX activity was measured by chemiluminescence following the methodology of Wind et al. (Wind, S. et al. Comparative pharmacology of chemically distinct NADPH oxidase inhibitors. Br J Pharmacol 161, 885-898 (2010)). Protein concentration was determined with the Pierce BCA protein assay (Fisher Scientific, Waltham, Mass.).
(§2) GSH, GSSG, NADP^+ and NADPH Determination.
(§3) GSH and GSSG were determined, following procedures previously described (Obrador, E. et al. PLoS One 9, e96466 (2014)), by LC/MS using the same equipment described above for pterostilbene determination. Cell processing was performed according to published methodology, where rapid N-ethylmaleimide derivatization was used to prevent GSH auto-oxidation (Asensi, M. et al. Anal Biochem 217, 323-328 (1994)). NADP^+ and NADPH were quantitated using an assay kit from Sigma (St. Louis, Mo.).
(§4) Isolation of Tumor Cells from Mouse Xenografts Using Enzymatic Digestion and a double Ficoll gradient.
(§5) To maximize the amount of isolated cells, avoiding the use of RFP-transfected cells and subsequent laser microdissection, an alternative methodology was set up. To maximize cell yield and viability the following combination of enzymes was used: collagenase III (200 U/ml; Sigma-Aldrich), DNase I (200 U/ml; Sigma-Aldrich) and trypsin (5 mg/ml; Invitrogen), and a non-enzymatic dissociation buffer (NEDB, Invitrogen). Briefly, mice were killed, and tumors were removed (avoiding skin, muscle and fat) into cold culture media and processed immediately. The tumors were minced into 1-3 mm fragments, which were then incubated with the dissociation solution (see above) for 30 min at 37° C. The tumor fragments were mixed up and down every 10 min using a […] micropipette with a tip cut to a diameter adapted to tissue fragment size. After each incubation period, the fragments were filtered through a […] nylon mesh cell strainer (BD Biosciences, San Diego, Calif., USA). The released cells were centrifuged at 1200 r.p.m. for 2 min and stored in cold CO2-independent medium with 30% FCS at […]. Fresh dissociation solution was added to the remaining tissue fragments for 30 min. Dissociation was stopped when no additional cells were released. The fragments were pushed through a sieve and all cells from all incubation periods were pooled and counted.
(§6) The dissociated cells were layered onto a double Ficoll gradient (Histopaque; Sigma-Aldrich; densities 1.077 and 1.119) and spun at 700 g for 30 min at room temperature. Cells removed from both interfaces were pooled and washed two times in CO2-independent medium and stored at 4° C. Debris and red blood cell elimination was improved with the dual-density gradient. […]

LNCaP cells = assay: GSH levels and glutathione- and oxidative stress-related enzyme activities in LNCaP cells growing in vivo; set-up: species or system human; conditions: in vivo Pter, day 49
Experimental: as §1, §2, §3, §4, §5, §6

[1] = system: AtT-20 pituitary corticotroph tumor cells; assay: ACTH production and POMC expression in AtT-20 cells; assay type: cell-based, mouse; conditions: pterostilbene 15 μM
Experimental: FIG. 3. Pterostilbene bioavailability in brain and the pituitary gland, and its effect on ACTH synthesis and POMC expression in AtT-20 cells. […] (B) Effect of pterostilbene on ACTH production by AtT-20 cells in a 24 h-period (measured between 24-48 h or between 48-72 h). […] After the 30 min period, culture flasks were washed out (three times with PBS) and the medium was renewed (controls received identical treatment).
(§7) Plasma levels of ACTH (Calbiotech, Inc., Spring Valley, Calif.), corticosterone (Kamiyama Biomedical Co., Seattle, Wash.), and NORA (IBL, Hamburg, Germany) were quantified by ELISA according to the instructions of the suppliers.
RT-PCR and detection of mRNA was performed as described above. For Western blotting (see also above) POMC mouse monoclonal antibody (clone 2B2) from Origen (Rockville, Md.) were used.

NORA = assay: Plasma NORA levels (ELISA) in melanoma-bearing mice; assay type: in vivo; conditions: melanoma-bearing mice treated vs not treated with Pter
Text: Measurement of ACTH, Corticosterone, and NORA Levels.
as §7

COc1cc(/C=C/c2ccc(O)cc2)cc(OC)c1 [Pter, trans-3,5-dimethoxy-4′-hydroxystilbene]
CAT (MCF-7 cells): 0.5 ± 0.2 mU/10^6 cells | GCL (MCF-7 cells): 166 ± 34 mU/10^6 cells | GSH (MCF-7 cells): 30.6 ± 4.2 nmol/10^6 cells | GSS (MCF-7 cells): 25.2 ± 5.6 mU/10^6 cells | GSSG (MCF-7 cells): 0.3 ± 0.1 nmol/10^6 cells | SOD1 (MCF-7 cells): 1.0 ± 0.08 U/10^6 cells | SOD2 (MCF-7 cells): 0.12 ± 0.05 U/10^6 cells | CAT (LNCaP cells): 1.9 ± 0.5 mU/10^6 cells | GCL (LNCaP cells): 45 ± 14 mU/10^6 cells | GSH (LNCaP cells): 3.7 ± 1.5 nmol/10^6 cells | GSS (LNCaP cells): 4.0 ± 1.2 mU/10^6 cells | GSSG (LNCaP cells): 0.12 ± 0.05 nmol/10^6 cells | SOD1 (LNCaP cells): 0.5 ± 0.1 U/10^6 cells | SOD2 (LNCaP cells): 0.01 ± 0.005 U/10^6 cells | ACTH production by AtT-20 cells ([1]; 30 min every 24 h, CRH 100 nM): decreases | POMC expression and levels in AtT-20 cells ([1]; 72 h of culture): decreased | NORA levels in plasma (NORA): not significantly different
